What was measured:
CRF1 receptor = target: T1, CRF1 receptor (Homo sapiens, UniProt P34998); test: CRF1 receptor binding kinetics (association/dissociation rate constants, method of Fleck et al.); settings: for Ki: Ki=k−1/k1, read-out: Kinetic Ki; for k1: association rate constant; for k^−1: dissociation rate constant
T1 sequence (P34998 24-415): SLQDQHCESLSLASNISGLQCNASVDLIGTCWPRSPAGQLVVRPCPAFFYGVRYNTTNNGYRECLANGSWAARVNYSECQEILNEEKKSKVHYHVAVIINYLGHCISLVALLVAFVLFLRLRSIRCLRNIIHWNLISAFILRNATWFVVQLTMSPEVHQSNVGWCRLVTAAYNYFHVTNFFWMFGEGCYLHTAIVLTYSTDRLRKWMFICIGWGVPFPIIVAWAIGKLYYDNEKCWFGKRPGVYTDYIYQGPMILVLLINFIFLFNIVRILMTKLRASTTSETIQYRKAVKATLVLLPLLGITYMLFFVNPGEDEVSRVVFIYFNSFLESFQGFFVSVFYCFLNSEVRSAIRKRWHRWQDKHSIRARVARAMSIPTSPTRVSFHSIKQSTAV
Method: The association (k1) and dissociation (k−1) rate constants defining binding of the Compounds to the CRF1 receptor were determined by the method described in Fleck et al. (J. Pharmacology and Experimental Therapeutics, 341(2):518-531, 2012) (hereinafter “Fleck et al.” and incorporated by reference in its entirety). As described therein, the activity of a CRF1 receptor antagonist can be expressed as the kinetically derived affinity (Ki) calculated from the association (k1) and dissociation (k−1) rate constants by the following equation: Ki=k−1/k1
The Compounds listed in Table 5 were evaluated according to these procedures, and the kinetic Ki was determined and found to be as follows: […]

[1] = Solubility determination of solid forms of Compound 1 in solvents (Example 52); type: physicochemical
From the text: X-Ray Powder diffraction (XRPD), differential scanning calorimetry (DSC), thermal gravimetric analysis (TGA), and UV-Metric/pH-Metric Titration (SiriusT3) were used to characterize Form I of Compound 1. UPLC was used to evaluate solubility of each material in various vehicles.

**Q.** Which results are given for CCCN(Cc1ccc(-c2ccccc2)cc1)c1cc(C)nc2c(-c3cnc(N(C)C)cc3C)c(C)nn12 [Compound 8, 5-(2,5-dimethyl-7-{[(4-phenylphenyl)methyl](propyl)amino}pyrazolo[1,5-a]pyrimidin-3-yl)-N,N,4-trimethylpyridin-2-amine]?
**A.** Ki (CRF1 receptor): < 0.12 nM; k1 (CRF1 receptor): 9.1 ± 4.1 10^6M^−1min^−1; k^−1 (CRF1 receptor): <0.001 min⁻¹

**Q.** For CCCN(Cc1ccc(-c2csc(NC)n2)cc1)c1cc(C)nc2c(-c3cnc(N(C)C)cc3C)c(C)nn12 [Compound 11, 5-{2,5-dimethyl-7-[({4-[2-(methylamino)-1,3-thiazol-4-yl]phenyl}methyl)(propyl)amino]pyrazolo[1,5-a]pyrimidin-3-yl}-N,N,4-trimethylpyridin-2-amine], which Ki (CRF1 receptor) is on record?
**A.** 0.72 nM

**Q.** What about the k1 (CRF1 receptor) of the same molecule?
**A.** 2.4 +/− 0.2 10^6M^−1min^−1

**Q.** And the “k^−1” value (CRF1 receptor)?
**A.** 0.0017 min⁻¹

**Q.** For CCCN(Cc1ccc(-c2csc(N(C)C)n2)cc1)c1cc(C)nc2c(-c3cnc(N(C)C)cc3C)c(C)nn12 [Compound 1-2 (FB), 5-{7-[({4-[2-(dimethylamino)-1,3-thiazol-4-yl]phenyl}methyl)(propyl)amino]-2,5-dimethylpyrazolo[1,5-a]pyrimidin-3-yl}-N,N,4-trimethylpyridin-2-amine], which “Measured pH” value ([1]; 50 mM CB pH 3) is on record?
**A.** pH 3.3

**Q.** What about the Solubility ([1]; 50 mM CB pH 3) of the same molecule?
**A.** 1.7 mg/mL FB

**Q.** And the “Measured pH” value ([1]; 50 mM CB pH 4)?
**A.** pH 4.1

**Q.** What about the Solubility ([1]; 50 mM CB pH 4) of the same molecule?
**A.** 0 mg/mL FB

**Q.** And the “Measured pH” value ([1]; 50 mM CB pH 5)?
**A.** pH 5.0

**Q.** And the Solubility ([1]; 50 mM CB pH 5)?
**A.** 0 mg/mL FB

**Q.** And the “Measured pH” value ([1]; 50 mM CB pH 6)?
**A.** pH 6.1

**Q.** And the Solubility ([1]; 50 mM CB pH 6)?
**A.** 0 mg/mL FB

**Q.** And the “Measured pH” value ([1]; 50 mM PB pH 2)?
**A.** pH 3.1

**Q.** What about the Solubility ([1]; 50 mM PB pH 2) of the same molecule?
**A.** 3.3 mg/mL FB

**Q.** And the “Measured pH” value ([1]; 50 mM PB pH 7)?
**A.** pH 7.1

**Q.** And the Solubility ([1]; 50 mM PB pH 7)?
**A.** 0 mg/mL FB

**Q.** What about the “Measured pH” value ([1]; 50 mM PB pH 8) of the same molecule?
**A.** pH 8.1

**Q.** What about the Solubility ([1]; 50 mM PB pH 8) of the same molecule?
**A.** 0 mg/mL FB

**Q.** What about the “Measured pH” value ([1]; 100% H2O) of the same molecule?
**A.** pH 8.3

**Q.** What about the Solubility ([1]; 100% H2O) of the same molecule?
**A.** 0 mg/mL FB

**Q.** Which results are given for CCCN(Cc1ccc(-c2ccccn2)cc1)c1cc(C)nc2c(-c3cnc(N(C)C)cc3C)c(C)nn12 [Compound 3, 5-{2,5-dimethyl-7-[propyl({[4-(pyridin-2-yl)phenyl]methyl})amino]pyrazolo[1,5-a]pyrimidin-3-yl}-N,N,4-trimethylpyridin-2-amine]?
**A.** Ki (CRF1 receptor): < 0.36 nM; k1 (CRF1 receptor): 2.9 ± 0.92 10^6M^−1min^−1; k^−1 (CRF1 receptor): <0.001 min⁻¹

— patent US12686680B2, “Substituted pyrazolo[1,5-α]pyrimidines as CRF receptor antagonists” (Neurocrine Biosciences, Inc., priority 2019, dated 2026)
